Data from ChEMBL document CHEMBL4371076 (J Med Chem, 2019).
Activity calls are given as the source filed them. No cut-off for these calls is given here.

Columns and labels:
[1] = Fraction unbound in rat DRG neurons; type: ADME
[2] = Fraction unbound in rat trigeminal ganglia neuron tissue; type: ADME, tissue-based, Trigeminal ganglion
[3] = Drug uptake in DRG neurons of CD1 mouse model of formalin-induced nociception at 30 mg/kg, po; type: ADME, organism-based, DRG neuron; conditions: in vivo, read-out: Drug uptake
[4] = Plasma concentration in CD1 mouse model of chronic constriction injury-induced cold allodynia at 30 mg/kg, ip dosed at 5 weeks post surgery and measured 60 mins post dose; type: ADME, organism-based
[5] = Unbound plasma concentration in CD1 mouse model of chronic constriction injury-induced cold allodynia at 10 mg/kg, ip dosed at 5 weeks post surgery and measured 60 mins post dose; type: ADME, organism-based; conditions: in vivo, 1 h
[6] = Drug uptake in DRG neurons of CD1 mouse model of formalin-induced nociception at 30 mg/kg, ip; type: ADME, organism-based, DRG neuron; conditions: in vivo, read-out: Drug uptake
[7] = Toxicity in CD1 mouse model of formalin-induced nociception assessed as prostration or sedation at 30 mg/kg, ip; type: organism-based; conditions: in vivo
[8] = test system: Mus musculus; assay: Analgesic activity in CD1 mouse model of formalin-induced nociception assessed as reduction in formalin-evoked paw flinching/licking response during first phase at 30 mg/kg, ip pretreated for 30 mins followed by formalin treatment and measured during first 5 mins post formalin injection; type: functional, organism-based
[9] = test system: Mus musculus; assay: Analgesic activity in CD1 mouse model of formalin-induced nociception assessed as reduction in formalin-evoked paw flinching/licking response during second phase at 30 mg/kg, ip pretreated for 30 mins followed by formalin treatment and measured during 15 to 45 mins post formalin injection; type: functional, organism-based
[10] = molecular target: Sodium channel protein type 2 subunit alpha (Homo sapiens, UniProt Q99250); assay: Inhibition of human Nav1.2 expressed in HEK293 cells after 600 secs at -60 mV holding potential by ion works barracuda population patch clamp method; type: cell-based
Sequence of Sodium channel protein type 2 subunit alpha (Q99250 whole entry): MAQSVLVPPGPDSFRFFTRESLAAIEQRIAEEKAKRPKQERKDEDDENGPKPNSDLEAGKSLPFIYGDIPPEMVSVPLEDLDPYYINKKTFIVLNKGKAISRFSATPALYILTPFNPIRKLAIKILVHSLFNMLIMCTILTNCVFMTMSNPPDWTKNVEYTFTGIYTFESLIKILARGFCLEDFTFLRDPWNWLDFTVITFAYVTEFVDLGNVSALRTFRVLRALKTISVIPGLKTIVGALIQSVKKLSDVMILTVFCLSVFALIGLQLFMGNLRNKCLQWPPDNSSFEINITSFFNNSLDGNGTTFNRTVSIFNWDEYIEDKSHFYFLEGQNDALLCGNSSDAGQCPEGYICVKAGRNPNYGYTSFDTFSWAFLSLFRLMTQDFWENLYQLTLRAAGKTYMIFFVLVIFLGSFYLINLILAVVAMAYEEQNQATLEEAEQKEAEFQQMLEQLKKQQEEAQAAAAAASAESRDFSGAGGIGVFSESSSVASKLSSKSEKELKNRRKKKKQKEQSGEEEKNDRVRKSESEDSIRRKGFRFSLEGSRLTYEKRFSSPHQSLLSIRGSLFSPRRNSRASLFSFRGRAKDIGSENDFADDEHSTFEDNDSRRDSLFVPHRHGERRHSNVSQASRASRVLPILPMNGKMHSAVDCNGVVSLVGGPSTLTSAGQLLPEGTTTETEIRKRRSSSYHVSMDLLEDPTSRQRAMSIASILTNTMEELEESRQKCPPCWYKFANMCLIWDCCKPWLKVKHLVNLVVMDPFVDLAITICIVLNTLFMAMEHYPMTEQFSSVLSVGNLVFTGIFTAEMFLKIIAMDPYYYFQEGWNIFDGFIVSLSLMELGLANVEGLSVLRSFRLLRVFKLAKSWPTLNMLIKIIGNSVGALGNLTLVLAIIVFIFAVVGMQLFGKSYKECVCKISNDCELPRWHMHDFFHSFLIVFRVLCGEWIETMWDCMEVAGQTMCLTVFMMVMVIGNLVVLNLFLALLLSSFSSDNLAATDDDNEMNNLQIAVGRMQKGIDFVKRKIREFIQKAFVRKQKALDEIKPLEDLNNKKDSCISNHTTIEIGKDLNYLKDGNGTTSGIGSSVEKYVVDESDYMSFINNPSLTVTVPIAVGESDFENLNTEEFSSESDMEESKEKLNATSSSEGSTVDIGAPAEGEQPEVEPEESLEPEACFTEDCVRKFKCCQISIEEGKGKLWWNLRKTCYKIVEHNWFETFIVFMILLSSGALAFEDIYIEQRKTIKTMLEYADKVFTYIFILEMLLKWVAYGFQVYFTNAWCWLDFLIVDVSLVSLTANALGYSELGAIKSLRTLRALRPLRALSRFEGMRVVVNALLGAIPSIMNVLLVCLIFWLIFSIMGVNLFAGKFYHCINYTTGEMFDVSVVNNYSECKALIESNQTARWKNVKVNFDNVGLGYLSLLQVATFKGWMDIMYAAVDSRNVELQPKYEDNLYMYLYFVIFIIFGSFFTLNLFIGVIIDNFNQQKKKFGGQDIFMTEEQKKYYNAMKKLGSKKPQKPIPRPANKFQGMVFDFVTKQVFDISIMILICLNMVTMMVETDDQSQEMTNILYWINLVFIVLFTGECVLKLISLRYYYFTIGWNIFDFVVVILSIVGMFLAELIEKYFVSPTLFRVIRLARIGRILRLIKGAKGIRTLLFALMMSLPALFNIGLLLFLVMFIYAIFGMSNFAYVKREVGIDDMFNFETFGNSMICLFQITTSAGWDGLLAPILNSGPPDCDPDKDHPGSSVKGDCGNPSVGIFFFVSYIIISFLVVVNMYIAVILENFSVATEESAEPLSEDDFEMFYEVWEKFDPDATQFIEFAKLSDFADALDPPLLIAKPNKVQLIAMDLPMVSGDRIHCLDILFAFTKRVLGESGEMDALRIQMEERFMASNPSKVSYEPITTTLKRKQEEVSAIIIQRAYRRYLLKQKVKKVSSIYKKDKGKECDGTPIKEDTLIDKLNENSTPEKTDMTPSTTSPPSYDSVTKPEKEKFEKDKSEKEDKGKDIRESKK

[11] = test system: Mus musculus; assay: Antinociceptive activity in CD1 mouse model of chronic constriction injury-induced cold allodynia assessed as increase in latency in response to cold at 30 mg/kg, ip dosed 30 mins before testing starting at 5 weeks after surgery relative to control; type: functional
[12] = Unbound plasma concentration in CD1 mouse model of formalin-induced nociception at 30 mg/kg, ip; type: ADME, organism-based; conditions: in vivo

**Q.** Which fraction unbound [1] does the source give for CC(C)COc1ccc(-c2cn(C)c3cc(C(=O)NS(C)(=O)=O)c(F)cc23)cn1 here?
**A.** 0.039

**Q.** And the fraction unbound [2]?
**A.** 0.045

**Q.** And the concentration [3]?
**A.** 0.99 µM

**Q.** With CC(C)COc1ncc(-c2cn(C)c3cc(C(=O)NS(C)(=O)=O)ccc23)cc1Cl as the compound, how does the concentration at 1 h [4] read?
**A.** 68 µM

**Q.** What about the “Cp(f)” value [5] of the same compound?
**A.** 0.054 µM

**Q.** What about the concentration [6] of the same compound?
**A.** 2.72 µM

**Q.** And the Activity [7]?
**A.** Non-Toxic

**Q.** And the Activity [8]?
**A.** inactive

**Q.** And the Activity [9]?
**A.** Active

**Q.** And the IC50 [10]?
**A.** 16 µM

**Q.** What about the Activity [11] of the same compound?
**A.** 25%

**Q.** What about the “Cp(f)” value [12] of the same compound?
**A.** 0.118 µM
